In patent US20190274974A1, “Treatment of Pain Associated with Trigeminal Neuralgia” (priority 2011, published 2019):
Entries after “also recorded” stand apart in the source; their conditions may differ.

What was measured:
CCI-ION rats [1] = conditions: rat, in vivo; cited from earlier work
CCI-SN rats [2] = conditions: rat, in vivo; cited from earlier work
CCI-SN rats [3] = assay type: in vivo, rat; conditions: rat, in vivo
Description: Rats are anaesthetized with sodium pentobarbital (50 mg/kg i.p.). Unilateral CCI-SN is performed under direct visual control using a Zeiss microscope (10-25×) essentially as described by Bennett and Xie (G. J. Bennett et al., Pain, 33 (1988) 87-107).
Mechanical sensitivity is determined with a graded series of von Frey filaments (Bioseb, Bordeaux, France; bending force: 0.07-60.0 g). The stimuli are applied within the SN territory (midplantar surface of the left hindpaw) three times at the nerve-injured side (ipsilateral, left) and then at the contralateral side for a total of 6 applications of each filament per rat, always beginning with the filament producing the lowest force. The von Frey filaments are applied at least 3 seconds after the rats returned to their initial resting state. For each session, the complete series of von Frey filaments is tested in increasing force order. The minimal force filament causing a hindpaw withdrawal response allows determination of the mechanical response threshold. The 60 g filament is the cut-off threshold.
For studying the effects of acute treatment with tapentadol in CCI-SN rats, tapentadol (1, 3 and 10 mg/kg i.p.) or its vehicle (0.9% NaCl i. p.) was injected acutely 14 days after surgery. Sham-operated rats were treated in parallel. Pressure threshold values to trigger nocifensive responses to von Frey filaments application onto the plantar surface of ipsilateral hindpaw were determined at various times after acute injection of tapentadol or saline. Cut-off was fixed at 60 g pressure.
For studying the effects of subchronic treatment with tapentadol in CCI-SN rats, starting on day 16 (Time=D) after surgery, they received i.p. injections of tapentadol (10 mg/kg, twice daily, at 10:00 AM and 6:00 PM) or saline (at the same day times as the drug) for four days. On the following day (day 20 after surgery), both tapentadol- and saline-pretreated CCI-SN rats were i.p. injected with Tapentadol (10 mg/kg; Time=0) and then subjected to von Frey filaments'test applied to ipsilateral hindpaw for determination of pressure threshold values at various times thereafter.
In a second part of this study (B), unilateral chronic constriction injury to the sciatic nerve was performed two weeks before acute treatment with reboxetine (10 mg/kg i.p.), tapentadol (10 mg/kg i.p.) or saline (0.5 ml i.p./rat). Pressure threshold values were then determined at various times using von Frey filaments test applied to ipsilateral hindpaw.
Morphine (1, 3 and 10 mg/kg s.c.) or its vehicle (0.9% NaCl) was injected acutely 14 days after CCI-SN surgery. Sham-operated rats were treated in parallel. Pressure threshold values to trigger nocifensive responses to von Frey filaments application onto the plantar surface of ipsilateral hindpaw were determined at various times after acute injection of morphine or saline.
14 days after CCI-SN surgery, rats were injected with reboxetine (10 mg/kg i.p.) or its vehicle (0.9% NaCl) followed, 15 min later, by morphine (1 mg/kg s.c.) or its vehicle (0.9% NaCl) and subjected to von Frey filament tests for the following 4 hours. Sham-operated rats were treated in parallel.
The results are depicted in FIG. 11.

CCI-ION rats [4] = assay type: in vivo, rat; conditions: rat, in vivo
Description: Rats are anaesthetized with sodium pentobarbital (50 mg/kg i.p.). Unilateral CCI-ION is performed under direct visual control using a Zeiss microscope (10-25×) essentially as described by Vos et al (Vos B P, Strassman A M, Maciewicz R J (1994), J. Neurosci. 14: 2708-2723). Briefly, the head is fixed in a Horsley-Clarke stereotaxic frame and a midline scalp incision is made, exposing skull and nasal bone. The edge of the orbit, formed by the maxillary, frontal, lacrimal, and zygomatic bones, is dissected free. The orbital contents are gently deflected to give access to the infraorbital nerve which is dissected free at its most rostral extent in the orbital cavity, just caudal to the infraorbital foramen. Only 5 mm of the nerve can be freed (Vos et al.), providing the space for placement of two chromic catgut (5-0) ligations tied loosely (with about 2 mm spacing) around it. […] Finally, scalp incision is closed using silk sutures (4-0). In sham-operated rats, the ION is exposed using the […] procedure, but is not ligated.
Mechanical sensitivity is determined with a graded series of eleven von Frey filaments (Bioseb, Bordeaux, France). The filaments produce a bending force of 0.07, 0.16, 0.40, 0.60, 1.00, 2.00, 4.00, 6.00, 8.00, 10.00 and 12.00 g, respectively. The stimuli are applied within the ION territory (vibrissae pad) three times at the nerve-injured side and then at the contralateral side for a total of 6 applications of each filament per rat, always beginning with the filament producing the lowest force. The von Frey filaments are applied at least 3 seconds after the rats returned to their initial resting state. For each session, the complete series of von Frey filaments is tested in increasing force order.
The latter responses represent the highest scores in the rank-ordered response scoring system initially described by Vos et al. The minimal force filament causing at least one among these responses (to at least 2 out of the 3 an each side) allows determination of the mechanical response threshold. The 12.00 g filament is the cut-off threshold (no tissue-injury occurs at this pressing force).
For studying the effects of acute treatment with tapentadol in CCI-ION rats, tapentadol (1 or 10 mg/kg i.p.) or its vehicle (0.9% NaCl i. p.) was injected acutely 14 days after surgery. Sham-operated rats were treated in parallel. Pressure threshold values to trigger nocifensive responses to von Frey filaments application onto the plantar surface of ipsilateral hindpaw were determined at various times after acute injection of tapentadol or saline. Cut-off was fixed at 12 g pressure.
For studying the effects of subchronic treatment with tapentadol in CCI-ION rats, starting on day 16 (Time=D) after surgery, they received i.p. injections of tapentadol (10 mg/kg, twice daily, at 10:00 AM and 6:00 PM) or saline (at the same day times as the drug) for four days. On the following day (day 20 after surgery), both tapentadol- and saline-pretreated CCI-SN rats were i.p. injected with Tapentadol (10 mg/kg; Time=0) and then subjected to von Frey filaments' test applied to ipsilateral hindpaw for determination of pressure threshold values at various times thereafter.
14 days after CCI-ION surgery, rats were injected with reboxetine (10 mg/kg i.p.) or its vehicle (0.9% NaCl) followed, 15 min later, by morphine (3 mg/kg s.c.) or its vehicle (0.9% NaCl) and subjected to von Frey filament tests for the following 4 hours. Sham-operated rats were treated in parallel.

BDNF-induced allodynia [5] = test: Mechanical allodynia induced by intrathecal administration of BDNF in healthy rats (von Frey filaments test); assay type: in vivo, rat
Description: In a first part of this study, BDNF (0.3 ng in 25 μl of saline per rat) or saline (25 μl) was injected intrathecally in adult male rats slightly anesthetized with isoflurane (according to Mestre et al. (1994), J. Pharmacol. Toxicol. Meth., 32, 197-200), and animals were subjected to von Frey filaments test applied to hindpaws at various times thereafter.
In a second part of this study, tapentadol (3 or 10 mg/kg i.p.) or saline was administered to rats on the 7th day (Time=0 on abscissa) after intrathecal injection of BDNF (Time=C) as described above. Pressure threshold values were determined using von Frey filaments test applied to hindpaws.
In a first part of this study (A), reboxetine (10 mg/kg i.p.; mesylate, Ascent Scientific, Bristol, UK), tapentadol (10 mg/kg i.p.) or saline (0.5 ml i.p./rat) was injected on the 7th day after intrathecal administration of BDNF (0.3 ng in 25 μl of saline per rat). Pressure threshold values were determined at various times thereafter using von Frey filaments test applied to hindpaws.

BDNF-induced allodynia [6] = test: as above; assay type: in vivo, rat; conditions: BDNF 0.3 ng i.t.; up to 11 days; data not shown

NC1=N[C@H](O)[C@H]2[C@H]3O[C@]4(O)O[C@@H]([C@@H](O)[C@@]2(N1)[C@@H]4O)[C@]3(O)CO [tetrodotoxin]
effect on mechanical allodynia generated by CCI-ION (CCI-ION rats [1]): ineffective | effect on mechanical allodynia generated by CCI-SN (CCI-SN rats [2]): significantly attenuate

CN1CC[C@]23c4c5ccc(O)c4O[C@H]2[C@@H](O)C=C[C@H]3[C@H]1C5 [morphine]
anti-allodynic effect (pressure threshold to trigger hindpaw withdrawal) (CCI-SN rats [3]): strongly anti-allodynic | increase in pressure threshold values (CCI-SN rats [3]): only discrete increases | persistence of full reversal (CCI-SN rats [3]): at least one hour | reversal of CCI-SN-induced mechanical allodynia (CCI-SN rats [3]): fully reversed; also recorded: not completely reversed | time after injection at which full reversal was reached (CCI-SN rats [3]): 30 min | effect on mechanical allodynia generated by CCI-ION (CCI-ION rats [1]): ineffective | effect on mechanical allodynia generated by CCI-SN (CCI-SN rats [2]): significantly attenuate | anti-allodynic effect (CCI-ION rats [4]): only a discrete effect | maximal increase in pressure threshold value as share of that determined in healthy intact rats (CCI-ION rats [4]): 20%

CCOc1ccccc1OC(c1ccccc1)C1CNCCO1 (centres unmarked) [reboxetine, reference compound]
maximal increase in pressure threshold values relative to that caused by 10 mg/kg i.p. of tapentadol (BDNF-induced allodynia [5]; rat, in vivo): only one third | reversal of mechanical allodynia caused by intrathecal BDNF (BDNF-induced allodynia [5]; rat, in vivo): significant but partial reversal | time at which the maximal increase in pressure threshold was reached (BDNF-induced allodynia [5]; rat, in vivo): 45 min | anti-allodynic effect compared to tapentadol (10 mg/kg i.p.) (CCI-SN rats [3]): developed more slowly and was much less pronounced | increase in pressure threshold values (CCI-SN rats [3]): only discrete increases | reversal of CCI-SN-induced decrease in pressure threshold values (CCI-SN rats [3]): significant but only partial reversal | anti-allodynic effect (CCI-ION rats [4]): completely inactive

B1: BDNF: neurotrophic factor injected intrathecally (0.3 ng per rat) to induce mechanical allodynia (protein, UniProt P23560 19-247, looked up)
Neurotrophic factor BDNF …: APMKEANIRGQGGLAYPGVRTHGTLESVNGPKAGSRGLTSLADTFEHVIEELLDEDQKVRPNEENNKDADLYTSRVMLSSQVPLEPPLLFLLEEYKNYLDAANMSMRVRRHSDPARRGELSVCDSISEWVTAADKKTAVDMSGGTVTVLEKVPVSKGQLKQYFYETKCNPMGYTKEGCRGIDKRHWNSQCRTTQSYVRALTMDSKKRIGWRFIRIDTSCVCTLTIKRGR
hindpaw pressure threshold values from day 4 to day 8 after injection (BDNF-induced allodynia [5]; BDNF 0.3 ng i.t.): as low as those previously determined two weeks after surgery in CCI-SN rats | hindpaw pressure threshold values on the 11th day relative to untreated healthy rats (BDNF-induced allodynia [5]; BDNF 0.3 ng i.t.): only half | pressure threshold value to trigger hindpaw withdrawal after intrathecal injection (BDNF-induced allodynia [5]; BDNF 0.3 ng i.t., single injection, healthy rats): progressive and long lasting decrease | pressure threshold value within the vibrissal pad (BDNF-induced allodynia [6]): ~12 g | pressure threshold values, von Frey filaments applied within the vibrissal pad (BDNF-induced allodynia [6]): not significantly modified
